Laboratory results reported in patent US20200024278A1, “COMPOSITION COMPRISING ANTIBIOTIC COMPOUND AND AN HETEROCYCLIC COMPOUND AND THEIR USE IN PREVENTING OR TREATING BACTERIAL INFECTIONS” (MUTABILIS, priority 2016, published 2020).
Read-outs that look alike come from different tables or passages of the source.

Tests used:
[1] = tested on: PAE 27853; experiment: MIC, broth microdilution (CLSI), substance alone or ATB combined with compound at 4 or 8 μg/mL; format: cell-based, P. aeruginosa; conditions: Pseudomonas aeruginosa, substance alone
How it was run: (§1)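 Broth microdilution; ca-MHB; 5·10^5 CFU/mL; 35° C, 16-20 h; compound alone or fixed 4/8 μg/mL with antibiotic series; endpoint = no visible growth.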

[2] = tested on: PAE UFR90; format: cell-based, P. aeruginosa; conditions: tntbc: Too numerous to be counted
Method: (§2) Method 4: Determination of the Spontaneous Mutation Frequency of the Compounds Alone and Combined with Antibiotics.
(§3) Bacterial isolates (Table 3) were grown overnight at 35° C. on TSA plates (Becton-Dickinson and Company) in ambient air. After 24 h of incubation, isolated bacterial colonies were added to cation-adjusted Mueller-Hinton broth (ca-MHB; Becton-Dickinson and Company) and cultured for approximately 6 h at 35° C. The pre-culture was stopped once bacteria have reached an OD600 nm of 0.5 for 200 μL. The bacterial suspension was centrifuged at 4000 rpm for 20 min. The supernatant was then discarded and the bacterial pellet was dissolved in ca-MHB to obtain 10^9 to 10^10 CFU/mL. Assays including Fosfomycin were supplemented with 25 μg/ml of Glucose-6-phosphate. 100 μL of the adjusted bacterial suspension were spread on agar plates containing different concentrations of the compounds of the present invention alone or combined with an antibacterial (Table 1). The plates were incubated for 24-48 h at 35° C. in ambient air. CFU were numerated on each agar plate containing compound. The number of resistant colonies obtained was divided by the starting inoculum to give the frequency of spontaneous resistance for a given incubation time (24 and 48 h).

[3] = tested on: PAE UFR48; format: cell-based, P. aeruginosa; conditions: tntbc: Too numerous to be counted
Method: as §2, §3

[4] = tested on: PAE 27853; format: cell-based, P. aeruginosa; conditions: tntbc: Too numerous to be counted
Method: as §2, §3

[5] = tested on: KPN UFR68; experiment: MIC, broth microdilution (CLSI), substance alone or ATB combined with compound at 4 or 8 μg/mL; format: cell-based, K. pneumoniae; conditions: Klebsiella pneumoniae, substance alone
How it was run: as §1

| SMILES | MIC [1] [µg/mL] | Frequency of spontaneous resistance ([2]; single agent at 4.MIC) | Frequency of spontaneous resistance ([2]; single agent at 8.MIC) | Frequency of spontaneous resistance ([3]; single agent at 4.MIC) | Frequency of spontaneous resistance ([3]; single agent at 8.MIC) | Frequency of spontaneous resistance ([4]; single agent at 4.MIC) | Frequency of spontaneous resistance ([4]; single agent at 8.MIC) | MIC [5] [µg/mL] |
| --- | --- | --- | --- | --- | --- | --- | --- | --- |
| NC[C@H]1C=C(c2cnco2)[C@@H]2CN1C(=O)N2OS(=O)(=O)[O-].O=C(O)C(F)(F)F.[Na+] (relative stereo) [Example 1, sodium and 2,2,2-trifluoroacetate [trans-2-(azaniumylmethyl)-4-oxazol-5-yl-7-oxo-1,6-diazabicyclo[3.2.1]oct-3-en-6-yl] sulfate] | 1 | tntbc | tntbc | tntbc | tntbc | tntbc | tntbc | – |
| CO/N=C(\C(=O)N[C@@H]1C(=O)N2C(C(=O)[O-])=C(C[N+]3(C)CCCC3)CS[C@H]12)c1csc(N)n1 [FEP, Cefepime] | – | – | – | – | – | – | – | > 256 |
| NCC[C@H](O)C(=O)N[C@@H]1C[C@H](N)[C@@H](O[C@H]2O[C@H](CN)[C@@H](O)[C@H](O)[C@H]2O)[C@H](O)[C@H]1O[C@H]1O[C@H](CO)[C@@H](O)[C@H](N)[C@H]1O [AN, Amikacin, reference compound] | 2 | – | – | – | – | 6.6E−07 | 1.7E−07 | – |
